Experiments:
Format in all cases: cell-based, human
Barx2 = experiment: Azacytidine demethylation, Barx2 re-expression in OAW42; conditions: OAW42, 96 hours, 0.5 μM azacytidine
Procedure: OAW42 was exposed to 5-azacytidine for 96 hours at different concentrations. […] Feint expression is seen for barx2 in OAW42 control, but strong induction of barx2 expression is seen at 0.5 μM azacytidine relative to actin signal.
OAW42 was exposed to 5-azacytidine for 96 hours at different concentrations.

PEO1CDDP [1] = experiment: Growth (cell counts) of PEO1CDDP transfectant clones exposed to cisplatinum; conditions: day 13
Procedure: We tested whether the introduction of Barx2 into PEO1CDDP altered its sensitivity to cisplatinum. 25000 cells were plated. Two days later, varying concentrations of cisplatinum were applied for 3 days, and then removed. Refeeding of the cells was performed every three days until day 13 with cell counts performed every three days.
CH1.1 is a control PEO1CDDP derivative clone that has been transfected with the pBabe Hygro empty vector (the same vector into which BarX2 was cloned) and behave as the parent line. CB3.6 is a BarX2 transfected growth suppressed clone. Both are exposed to increasing concentrations of cisplatinum.
The result of this experiment is seen particularly at the 1 μM cisplatinum concentration. Compared with no cisplatinum, the control cell line grows to 85% control at 1 μM cisplatinum at day 13. At the same timepoint and concentration of platinum, the BarX2 transfected platinum resistant cell line grows to only 69% of control. This increase in platinum sensitivity (or reduction in resistance) upon BarX2 transfection is consistent with the observed aberrant expression of the 5′ BarX2 transcript noted by RT-PCR in the PEO series of cell lines. Whether BarX2 induces sensitivity, reduces resistance, or both is not understood and the underlying mechanism is currently being explored.

PEO1 = experiment: 12 day growth inhibition assay with cisplatin, PEO1 with and without Barx2 transfection; conditions: PEO1, across the cisplatin concentration range
Text: (§1) Transfection of BARX2 into OVCAR3, OAW42, PEO1 and PEO1-CDDP suppresses cell growth. In OAW42, this is accompanied by suppression of matrigel invasion, cell migration and adhesion and partial G1/S-phase block. […] This is consistent with recent thinking for molecular mechanisms of cytotoxicity in clinical cancer, and clonogenic assays are shown in FIG. 35.

[2] = system: PEO1 cisplatin sensitive and resistant cell lines; experiment: Annexin-V-FACS apoptosis after cisplatin
Procedure: Flow-cytometric detection of phosphatidylserine expression in cell lines and MHCs was performed according to the manufacturer's method using the Fluorescein labelled Annexin-V Apoptosis Detection Kit (R&D systems) (Vermes et al, 1995). The measure of early apoptosis derives from the assessment of the proportion of Annexin-V positives Propidium Iodide negative cells.
as §1

[3] = system: PEO1CDDP transfectant cell lines; experiment: Clonogenic assay of PEO1CDDP transfectants after cisplatinum exposure; conditions: CB1.3, CB3.6 vs CH1.1, CH2.2; 3 day exposure, 1.0 μM cisplatinum; p<0.0001
Procedure: FIG. 35. The PEO1CCDP pBABE Hygromycin control transfectant cell lines CH1.1 and CH2.2, and the PEO1CDDP pBABE BARX2 transfectant cell lines CB1.3 and CB3.6, were assayed for survival at day 12 following 3 day exposure to 0 μM, 1.0 μM and 2.0 μM cisplatinum in a clonogenic assay.

PEO1CDDP [4] = experiment: 12 day growth inhibition assay with cisplatin, PEO1CDDP with and without Barx2 transfection; conditions: across the cisplatin concentration range
PEO1 CDDP cell line = experiment: Cisplatin resistance of PEO1 CDDP cell line relative to PEO1; conditions: developed by exposing PEO1 to cisplatinum in vitro
Text: (§2) In FIG. 4, the 5′ end (F1R1) and the 3′ end (F3R3) of the BarX2 transcript are amplified by RT-PCR using the primers given. PEO1, PEO4, PEO6 and PEOCDDP are four cell lines derived from a patient with ovarian cancer. […] Another cell line PEO4 was derived from the same patient when they relapsed again after treatment with high dose cisplatin chemotherapy in vivo. This cell line is approx four-fold resistant relative to PEO1.

PEO4 = experiment: Cisplatin resistance of PEO4 cell line relative to PEO1; conditions: PEO4, derived after relapse following high dose cisplatin in vivo
Text: as §2

| Compound | induction of Barx2 expression (Barx2) | growth compared with no cisplatinum (PEO1CDDP [1]; BarX2 transfected clone CB3.6, 1 μM cisplatinum for 3 days) [%] | growth compared with no cisplatinum (PEO1CDDP [1]; control clone CH1.1 (pBabe Hygro empty vector), 1 μM cisplatinum for 3 days) [%] | change of sensitivity to cisplatin as a result of Barx2 transfection (PEO1) | apoptosis, sensitive versus resistant cell lines ([2]; 1.5 or 5 micromolar cisplatin, between 1 hr and 40 hr) | apoptosis in response to cisplatin in BARX2 transfected cells ([2]; BARX2 transfected PEO1 and PEO1-CDDP) | increase in platinum sensitivity following BARX2 transfection (survival at day 12) [3] | increase of platinum sensitivity by Barx2 transfection (PEO1CDDP [4]) | resistance to cisplatin relative to PEO1 (PEO1 CDDP cell line) [fold] | resistance relative to PEO1 (PEO4) |
| --- | --- | --- | --- | --- | --- | --- | --- | --- | --- | --- |
| Nc1ncn([C@@H]2O[C@H](CO)[C@@H](O)[C@H]2O)c(=O)n1 [5-azacytidine] | Clear induction | – | – | – | – | – | – | – | – | – |
| N.N.[Cl][Pt][Cl] [cisplatin] | – | 69 | 85 | not significantly altered | no significant differences | no increase in apoptosis | statistically significant | six | 18 | approx four |
